Source: ChEMBL document CHEMBL3885881, “DrugMatrix”

Species: Rattus norvegicus
Assay: DrugMatrix - Regimen: Daily Repeat
Type: toxicity, organism-based, Sprague-Dawley
Design: regimen Daily Repeat, gender Male, age 6-8 weeks
Conditions: in vivo, po, route oral GAVAGE, […]; for ABSOLUTE BASOPHIL / ABSOLUTE EOSINOPHIL / ABSOLUTE LYMPHOCYTE / ABSOLUTE MONOCYTE / ABSOLUTE SEGMENTED NEUTROPHIL / BASOPHIL / EOSINOPHIL / ERYTHROCYTE COUNT / HEMATOCRIT / HEMOGLOBIN / LEUKOCYTE COUNT / LYMPHOCYTE / MEAN CORPUSCULAR HEMOGLOBIN / MEAN CORPUSCULAR HEMOGLOBIN CONCENTRATION / MEAN CORPUSCULAR VOLUME / MONOCYTE / NEUTROPHIL / NUCLEATED RED BLOOD CELLS / PLATELET COUNT: tissue Blood; for ALANINE AMINOTRANSFERASE / ALBUMIN / ALKALINE PHOSPHATASE / ASPARTATE AMINOTRANSFERASE / BLOOD UREA NITROGEN / CARBON DIOXIDE / CHLORIDE / CHOLESTEROL / CREATINE PHOSPHOKINASE / CREATININE / GLUCOSE / LACTATE DEHYDROGENASE / LIPASE / PHOSPHORUS / POTASSIUM / SODIUM / TOTAL BILIRUBIN / TOTAL PROTEIN / URIC ACID: tissue Plasma
[1] = 11 mg/kg, 120 h, dose level High, time 5 day
[2] = 72 h, dose 0.26 mg/Kg, dose level Low, time 3 day
[3] = 120 h, dose 0.26 mg/Kg, dose level Low, time 5 day

In the case of `C[C@H]1O[C@@H](O[C@H]2[C@@H](O)C[C@H](O[C@H]3[C@@H](O)C[C@H](O[C@H]4CC[C@@]5(C)[C@H](CC[C@@H]6[C@@H]5C[C@@H](O)[C@]5(C)[C@@H](C7=CC(=O)OC7)CC[C@]65O)C4)O[C@@H]3C)O[C@@H]2C)C[C@H](O)[C@@H]1O` [DIGOXIN], the “ABSOLUTE BASOPHIL” value [1] is reported as 0 CELLS/uL, the “ABSOLUTE EOSINOPHIL” value [1] is reported as 21.33 CELLS/uL and the “ABSOLUTE LYMPHOCYTE” value [1] is reported as 5911 CELLS/uL. For the same molecule, the “ABSOLUTE MONOCYTE” value [1] was 0 CELLS/uL, the “ABSOLUTE SEGMENTED NEUTROPHIL” value [1] was 367.67 CELLS/uL and the BASOPHIL [1] was 0%. For the same molecule, the EOSINOPHIL [1] was 0.33%, the “ERYTHROCYTE COUNT” value [1] was 6.17 x10E6/uL and the HEMATOCRIT [1] was 38.03%. For the same molecule, the HEMOGLOBIN [1] was 15.03 G/DL, the “LEUKOCYTE COUNT” value [1] was 6.3 x10E3/uL and the LYMPHOCYTE [1] was 94.33%. For the same molecule, the “MEAN CORPUSCULAR HEMOGLOBIN” value [1] was 24.37 pg, the “MEAN CORPUSCULAR HEMOGLOBIN CONCENTRATION” value [1] was 39.53 G/DL and the “MEAN CORPUSCULAR VOLUME” value [1] was 61.63 fL. The MONOCYTE [1] was 0%, the NEUTROPHIL [1] was 5.33% and the “NUCLEATED RED BLOOD CELLS” value [1] was 0 /100WBC. The “PLATELET COUNT” value [1] was 1098 x10E3/uL, the “ALANINE AMINOTRANSFERASE” value [1] was 90 u/L and the ALBUMIN [1] was 4.37 G/DL. The “ALKALINE PHOSPHATASE” value [1] was 342 u/L, the “ASPARTATE AMINOTRANSFERASE” value [1] was 79.67 u/L and the “BLOOD UREA NITROGEN” value [1] was 9.33 mg/dL. The “CARBON DIOXIDE” value [1] was 32.67 mmol/L, the CHLORIDE [1] was 95 MEQ/L and the CHOLESTEROL [1] was 90.67 mg/dL. The “CREATINE PHOSPHOKINASE” value [1] was 208.33 u/L, the CREATININE [1] was 0.11 mg/dL and the GLUCOSE [1] was 175.67 mg/dL. The “LACTATE DEHYDROGENASE” value [1] was 92 u/L, the LIPASE [1] was 9.33 u/L and the PHOSPHORUS [1] was 9.27 mg/dL. For the same molecule, the POTASSIUM [1] was 4.94 MEQ/L, the SODIUM [1] was 141.5 MEQ/L and the “TOTAL BILIRUBIN” value [1] was 0.17 mg/dL. The “TOTAL PROTEIN” value [1] was 6.23 G/DL, the “URIC ACID” value [1] was 0.5 mg/dL and the “ABSOLUTE BASOPHIL” value [2] was 0 CELLS/uL. The “ABSOLUTE EOSINOPHIL” value [2] was 80.67 CELLS/uL, the “ABSOLUTE LYMPHOCYTE” value [2] was 8480.33 CELLS/uL and the “ABSOLUTE MONOCYTE” value [2] was 0 CELLS/uL. The “ABSOLUTE SEGMENTED NEUTROPHIL” value [2] was 705.67 CELLS/uL, the BASOPHIL [2] was 0% and the EOSINOPHIL [2] was 0.67%. For the same molecule, the “ERYTHROCYTE COUNT” value [2] was 5.56 x10E6/uL, the HEMATOCRIT [2] was 34.27% and the HEMOGLOBIN [2] was 13.27 G/DL. For the same molecule, the “LEUKOCYTE COUNT” value [2] was 9.27 x10E3/uL, the LYMPHOCYTE [2] was 91.67% and the “MEAN CORPUSCULAR HEMOGLOBIN” value [2] was 23.83 pg. For the same molecule, the “MEAN CORPUSCULAR HEMOGLOBIN CONCENTRATION” value [2] was 38.73 G/DL, the “MEAN CORPUSCULAR VOLUME” value [2] was 61.63 fL and the MONOCYTE [2] was 0%. For the same molecule, the NEUTROPHIL [2] was 7.67%, the “NUCLEATED RED BLOOD CELLS” value [2] was 0 /100WBC and the “PLATELET COUNT” value [2] was 1014 x10E3/uL. For the same molecule, the “ALANINE AMINOTRANSFERASE” value [2] was 79.33 u/L, the ALBUMIN [2] was 3.97 G/DL and the “ALKALINE PHOSPHATASE” value [2] was 406.67 u/L. For the same molecule, the “ASPARTATE AMINOTRANSFERASE” value [2] was 82.67 u/L, the “BLOOD UREA NITROGEN” value [2] was 14.67 mg/dL and the “CARBON DIOXIDE” value [2] was 34 mmol/L. The CHLORIDE [2] was 101.33 MEQ/L, the CHOLESTEROL [2] was 79.33 mg/dL and the “CREATINE PHOSPHOKINASE” value [2] was 157.33 u/L. The CREATININE [2] was 0.12 mg/dL, the GLUCOSE [2] was 161 mg/dL and the “LACTATE DEHYDROGENASE” value [2] was 84 u/L. The LIPASE [2] was 10 u/L, the PHOSPHORUS [2] was 9.57 mg/dL and the POTASSIUM [2] was 6.36 MEQ/L. The SODIUM [2] was 146.27 MEQ/L, the “TOTAL BILIRUBIN” value [2] was 0.27 mg/dL and the “TOTAL PROTEIN” value [2] was 5.63 G/DL. For the same molecule, the “URIC ACID” value [2] was 1.2 mg/dL, the “ABSOLUTE BASOPHIL” value [3] was 0 CELLS/uL and the “ABSOLUTE EOSINOPHIL” value [3] was 0 CELLS/uL. For the same molecule, the “ABSOLUTE LYMPHOCYTE” value [3] was 13719.67 CELLS/uL, the “ABSOLUTE MONOCYTE” value [3] was 0 CELLS/uL and the “ABSOLUTE SEGMENTED NEUTROPHIL” value [3] was 1313.67 CELLS/uL. For the same molecule, the BASOPHIL [3] was 0%, the EOSINOPHIL [3] was 0% and the “ERYTHROCYTE COUNT” value [3] was 5.8 x10E6/uL. The HEMATOCRIT [3] was 35.03%, the HEMOGLOBIN [3] was 13.67 G/DL and the “LEUKOCYTE COUNT” value [3] was 15.03 x10E3/uL. The LYMPHOCYTE [3] was 90.33%, the “MEAN CORPUSCULAR HEMOGLOBIN” value [3] was 23.57 pg and the “MEAN CORPUSCULAR HEMOGLOBIN CONCENTRATION” value [3] was 39.03 G/DL. For the same molecule, the “MEAN CORPUSCULAR VOLUME” value [3] was 60.4 fL, the MONOCYTE [3] was 0% and the NEUTROPHIL [3] was 9.67%. The “NUCLEATED RED BLOOD CELLS” value [3] was 0 /100WBC, the “PLATELET COUNT” value [3] was 1074 x10E3/uL and the “ALANINE AMINOTRANSFERASE” value [3] was 64.67 u/L. For the same molecule, the ALBUMIN [3] was 4.03 G/DL, the “ALKALINE PHOSPHATASE” value [3] was 401.33 u/L and the “ASPARTATE AMINOTRANSFERASE” value [3] was 82.67 u/L. For the same molecule, the “BLOOD UREA NITROGEN” value [3] was 15.33 mg/dL, the “CARBON DIOXIDE” value [3] was 31.67 mmol/L and the CHLORIDE [3] was 100.33 MEQ/L. For the same molecule, the CHOLESTEROL [3] was 58.67 mg/dL, the “CREATINE PHOSPHOKINASE” value [3] was 259 u/L and the CREATININE [3] was 0.14 mg/dL. For the same molecule, the GLUCOSE [3] was 148.33 mg/dL, the “LACTATE DEHYDROGENASE” value [3] was 110 u/L and the LIPASE [3] was 9.33 u/L. For the same molecule, the PHOSPHORUS [3] was 9.93 mg/dL, the POTASSIUM [3] was 5.45 MEQ/L and the SODIUM [3] was 144.47 MEQ/L. For the same molecule, the “TOTAL BILIRUBIN” value [3] was 0.2 mg/dL, the “TOTAL PROTEIN” value [3] was 5.73 G/DL and the “URIC ACID” value [3] was 0.7 mg/dL.
